For data set [1], the target named is T1, soybean 15-lipoxygenase (SLO; L1; Type I-B; EC 1,13,11,12) (Glycine max, UniProt P08170).
T1 construct: purchased Sigma Co
T1 sequence (P08170 1-839): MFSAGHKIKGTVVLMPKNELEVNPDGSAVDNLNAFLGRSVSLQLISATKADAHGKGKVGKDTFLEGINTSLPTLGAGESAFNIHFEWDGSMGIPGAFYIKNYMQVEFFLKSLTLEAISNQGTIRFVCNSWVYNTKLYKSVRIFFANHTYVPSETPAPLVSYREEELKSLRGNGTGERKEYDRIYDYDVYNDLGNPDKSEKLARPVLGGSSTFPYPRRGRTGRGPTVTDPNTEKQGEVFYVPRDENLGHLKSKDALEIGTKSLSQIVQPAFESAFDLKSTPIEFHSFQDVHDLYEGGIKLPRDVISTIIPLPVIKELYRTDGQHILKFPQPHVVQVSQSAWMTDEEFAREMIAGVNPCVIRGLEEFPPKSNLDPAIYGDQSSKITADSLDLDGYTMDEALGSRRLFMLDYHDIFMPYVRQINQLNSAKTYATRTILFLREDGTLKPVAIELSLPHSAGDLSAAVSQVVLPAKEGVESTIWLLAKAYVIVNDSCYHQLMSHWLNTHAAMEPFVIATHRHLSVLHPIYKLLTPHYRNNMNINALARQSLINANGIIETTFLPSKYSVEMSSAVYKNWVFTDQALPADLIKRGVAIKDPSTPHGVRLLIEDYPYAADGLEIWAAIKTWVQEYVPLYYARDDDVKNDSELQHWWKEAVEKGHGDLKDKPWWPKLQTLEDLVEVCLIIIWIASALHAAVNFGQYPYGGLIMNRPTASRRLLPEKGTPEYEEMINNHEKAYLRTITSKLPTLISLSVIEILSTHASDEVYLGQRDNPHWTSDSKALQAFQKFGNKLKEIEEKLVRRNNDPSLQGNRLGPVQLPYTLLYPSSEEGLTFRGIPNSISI
The settings on record: cited from earlier work.

The target of data set [2] is T1, soybean 15-lipoxygenase (SLO; L1; Type I-B; EC 1,13,11,12). The data set can be described thus: SLO enzyme inhibition, peroxide-formation method (substrate linoleic acid). It counts as biochemical. On the procedure:
LA, enzyme and two assay solutions (A and B) were firstly prepared as follow:
LA solution: A mixture of LA (5.6 mg), ethanol (0.5 ml) and KOH (100 mM) to a final volume of 5 ml (6).
The enzyme solution was prepared by dissolving 1 mg lyophilized SLO (L1; Type I-B; EC 1, 13, 11, 12; Sigma Co.) in 5 ml phosphate buffer (50 mM, pH 7.0) and then its activity was checked by diene formation method at 234 nm. Finally, its activity was decreased to desired quantity by dilution with the phosphate buffer.
Solution A: DMAB (3-dimethylaminobenzoic acid) 50 mM in phosphate buffer (100 mM, pH 7.0).
Solution B: A mixture of MBTH (3-methyl-2-benzothiazolonhydrazone) (10 mM, 3 ml) and hemoglobin (5 mg/ml, 3 ml) in 25 ml phosphate buffer (50 mM, pH 5.0).
Assay procedure: the sample solution in dimethyl sulfoxide (25 µl), enzyme solution (4000 units/ml; 25 µl), and phosphate buffer (pH 7.0, 50 mM; 900 µl) were mixed in a test plate and pre-incubated for 5 min at room temperature. Control test was done using the same volume of dimethyl sulfoxide. After pre-incubation, LA solution (50 µl) was added (starting of the peroxidation reaction) and 10 min later, solution A (270 µl) and subsequently solution B (130 µl) were added to start the color formation. 3 min later, 200 µl of sodium dodecyl sulfate solution (2% W/V) was added to terminate the reaction. The absorbance was recorded at 598 nm. Each experiment was performed in triplicate. The data analysis was done in GraphPad Prism 6.0 ([6]).
Lipoxygenase inhibitory activity of the synthetic compounds (substrate: linoleic acid) was assessed by using the peroxide-formation method, according to the published literature ([14], [15]). In this method, measurement of linoleate hydroperoxide concentration is the basis of lipoxygenase activity determination. All the assessments were performed in comparison with 4-MMPB (4-methyl-2-(4-methylpiperazinyl)pyrimido[4,5-b]benzothiazine) as a well-known lipoxygenase inhibitor.

For data set [3], the target named is T2, soybean 15-lipoxygenase (SLO) (Glycine max, UniProt P08170).
T2 construct: purchased Sigma Co
T2 sequence (P08170 1-839): T1 sequence (P08170 1-839)
Briefly: Inhibitory mechanism of SLO inhibition (Michaelis-Menten / Lineweaver-Burk). It is filed as biochemical. The settings on record: Tris buffer pH 7.2; LA 6.25-100 µM; inhibitor 125, 100 and 75 µM; Lineweaver-Burk plot. On the procedure:
The experiment was done in Tris buffer (pH 7.2, 50 mM). Five concentrations of LA (6.25, 12.5, 25, 50 and 100 µM) were used. The enzyme activity was measured in the absence (control test) and presence of 6f as inhibitor (concentrations 125, 100, and 75 µM).
25 µl of the enzyme solution (4000 unit/ml) was added to mixture of buffer (900 µl) and inhibitor (25 µl) and incubated for 10 min at room temperature. Subsequently, 50 µl of LA solution was added to the mixture to start the reaction. After 10 min, solution A (270 µl) and then solution B (130 µl) were added to start color formation (preparation of solution A and B described in the previous section). 3 min later, 200 µl of a 2% SDS solution was added to terminate the reaction. The absorbance was recorded at 598 nm compared with the control. These experiments were performed in triplicate. Using the reaction rates (Abs.min^-1), both inhibitor and LA concentrations (µM), Michaelis-Menten and Lineweaver-Burk plots were graphed in GraphPad Prism 6.0.
So molecular docking by AutoDockTools could be responsible for finding the probable binding conformation of the inhibitors in active site pocket of SLO.

[4] abbreviates: substrate linoleic acid, phosphate buffer pH 7.0, absorbance 598 nm, triplicate, read-out: IC50 (SLO inhibition).

“Also recorded” adds a separate entry of the source. Where two headings read alike, the source gives them in different places.

For `C=CCc1cc(OC)ccc1OC(C)C` [Compound A2, 2-allyl-1-isopropoxy-4-methoxybenzene], in data set [1] (previous work on 2-alkoxy-5-methoxyallylbenzenes, read-out: IC50 (lipoxygenase inhibition) of A2), the IC50 was 5.9 ± 0.6 µM.

`C=CCc1cc(NC(=O)c2ccccc2)ccc1OC(C)C` [Compound 6e, N-(3-allyl-4-isopropoxyphenyl) benzamide] registered a melting point of 128 to 130 °C. Also, the “SLO inhibition, result in words” value in data set [2] (substrate linoleic acid) was “no effect; also recorded: did not show any activity”. The IC50 in data set [2] (setting [4]) was greater than 100 µM.

In turn, `C=CCc1cc(NC(=O)C2CC2)ccc1OC(C)C` [Compound 6a, N-(3-allyl-4-isopropoxyphenyl) cyclopropane carboxamide] registered a melting point of 78 to 79 °C. The IC50 in data set [2] (setting [4]) came out at 45.5 ± 8.1 µM.

The compound `C=CCc1cc(NC(=O)C2CCCC2)ccc1OC(C)C` [Compound 6c, N-(3-allyl-4-isopropoxyphenyl) cyclopentane carboxamide] showed a melting point of 88 to 89 °C. In addition, the IC50 in data set [2] (setting [4]) was determined as 9.27 ± 1.9 µM.

For `C=CCc1cc(NC(=O)C2CCCCC2)ccc1OC(C)C` [Compound 6d, N-(3-allyl-4-isopropoxyphenyl) cyclohexane carboxamide], the melting point was 93 to 95 °C. In data set [2] (setting [4]), the IC50 is 3.56 ± 0.21 µM.

As for `C=CCOc1ccc(NC(=O)C23CC4CC(CC(C4)C2)C3)cc1CC=C` [Compound A1, N-(3-allyl-4-(allyloxy)phenyl) adamantanecarboxamide], the IC50 in data set [1] (previous work on N-(3-allyl-4-(allyloxy)phenyl) carboxamides, read-out: IC50 (lipoxygenase inhibition) of A1) was 9.8 ± 1.2 µM.

The compound `C=CCc1cc(NC(=O)C2CCC2)ccc1OC(C)C` [Compound 6b, N-(3-allyl-4-isopropoxyphenyl) cyclobutane carboxamide] gave a melting point of 81 to 83 °C. Besides, the IC50 in data set [2] (setting [4]) came out at 25.2 ± 2.1 µM.

For the compound `C=CCc1cc(NC(=O)C23CC4CC(CC(C4)C2)C3)ccc1OC(C)C` [Compound 6f, N-(3-allyl-4-isopropoxyphenyl) adamantane carboxamide], the IC50 in data set [2] stood at 1.35 ± 0.08 µM. For the same compound, in data set [3], the “Inhibitory mechanism on SLO” value was “competitive mechanism”.

These data come from article PMC7478253, “Design, synthesis, and SAR study of isopropoxy allylbenzene derivatives as 15-lipoxygenase inhibitors” (Iranian Journal of Basic Medical Sciences, 2020).
